Results from US8207195B2, “Method for treating neurological and neuropathic diseases using rho kinase inhibitor compounds” (priority 2008, dated 2012).
“Also recorded” adds a separate entry of the source.

Tests used:
ERK2 = target: T1, ERK2 (Homo sapiens, UniProt P28482); experiment: Kinase panel screen (KinaseProfiler), ERK2; format: biochemical; settings: 10 μM ATP
T1 construct: purchased Upstate, Millipore Bioscience Division (KinaseProfiler service)
Protocol: Compounds of Formulae I and II were examined for activity against a selected panel of kinases using the KinaseProfiler™ enzyme profiling services (Upstate, Millipore Bioscience Division). Percent kinase activity at 10 μM and 1 μM test compound and 10 μM ATP was determined against 40 wild-type recombinant human kinases according to Upstate's standard protocol: ASK1, BTK, CSK, c-RAF, GCK, GSK3β, IKKα, IKKβ, IRAK1, IRAK4, JNK1α1, JNK2α2, JNK3, ERK1, ERK2, MAPKAP-K2, MAPKAP-K3, MEK1, MKK4, MKK6, MKK7β, Mnk2, MSK1, PAK3, PDK1, PRAK, ROCK1, Rsk2, SAPK2a, SAPK2b, SAPK3, SAPK4, SRPK1, SRPK2, Syk, TAK1, TBK1, PI3-Kβ, PI3-Kγ, PI3-Kδ.

[1] = tested on: LPS-stimulated human monocytes; experiment: Human monocyte cytokine secretion assay (LPS); format: cell-based; settings: range over the three cytokines and both compounds, read-out: potencies for reducing secretion of IL-1β, TNF-α and IL-9
Protocol: Peripheral blood from healthy human volunteers was collected and the monocytes isolated via Ficoll-paque density centrifugation. […] The cells were allowed to pre-incubate with test compound at the indicated concentration for 30 minutes (37° C., 5% CO2, humidified air); after which the supernatant was removed and media containing compound and 1 ng/mL LPS was added. Cells were allowed to incubate with compounds and LPS for 4 hours at 37° C. after which the supernatant was removed and stored at −80° C. Cytokine concentrations in the supernatant were determined using commercially available Bio-Rad Bio-plex™ kits according the manufacturer's instructions.

murine eosinophils = experiment: Murine eosinophil chemotaxis (eotaxin); format: cell-based, mouse; settings: 10 nM eotaxin challenge
Protocol: These assays are in vitro assays of eosinophil chemotaxis that can be used to evaluate the ability of Rho Kinase inhibitor compounds of Formula I or II to inhibit the migration of eosinophils, an immunomodulatory cell involved in inflammation. Compounds with activity in this assay can be utilized to treat disease associated with an inflammatory response. Mouse Eosinophil Isolation: Bronchoalveolar lavage was collected from ovalbumin sensitized and challenged mice in a volume of 2.5 mL lavage buffer. The lavage buffer was 0.9% saline with 10% fetal bovine serum. The pooled lavages were maintained on ice until use. […] In Vitro Chemotaxis: […]

[2] = tested on: ova-sensitized, ova-challenged mice; experiment: Prevention of airway hyperreactivity (Penh, methacholine) in ovalbumin-sensitized mice; format: in vivo, mouse; settings: for airway hyperreactivity to metacholine: oral 15 μMol/kg once a day during days 27 to 31, tested Day 32
From the text: Airway hyperreactivity is a downstream physiologic effect of inflammation in the mouse ovalbumin sensitization model. The objective of the experiment was to answer whether the decrease in inflammation due to ROCK inhibitor anti-inflammatory dosing results in the prevention of downstream physiological consequences as measured by Penh. […] The anti-inflammatory dosing paradigm consists of dosing the animals once a day starting on day 27 and finishing on either day 30 or 31 (1 hr prior to the aerosolized ovalbumin challenges on days 28 to 30) but not on day 32 when hyperreactivity evaluation occurs. […] Exposure to the methacholine doses consisted of a 3 minute period during which a nebulizer was aerosolizing the methacholine and an additional 3 minute period following the cessation of nebulization. […] Enhanced pause (Penh), a unitless index of airway hyperreactivity, is derived from the expiratory side of the respiratory waveform measured via the plethysmograph and is used as an indirect measure of airway resistance and hyperreactivity. […] Following the methacholine dose response, BALF was collected and all animals were anesthetized, bled and euthanized. […] The Penh value at each of the dose levels of methacholine represents the 6-minute average response. Change from baseline (CFB) in Penh was calculated at each methacholine dose and the area under the curve (AUC) for these CFB values was calculated using the trapezoidal rule. This same approach was applied for each mouse across multiple experiments. […] Data from equal experimental conditions across experiments performed on different days were pooled for statistical analysis and data reporting. […] A random intercept for each experiment was assumed to account for possible similarities of the results obtained from a given experiment (i.e., as a “blocking effect”). […] For FIG. 7, linear AUC values from compound treated mice were reported as a percent of linear AUC values from vehicle-treated ovalbumin-sensitized/ovalbumin-challenged (asthmatic) mice. […]

[3] = tested on: ova-sensitized, ova-challenged mice; experiment: Mouse ovalbumin sensitization model, anti-inflammatory dosing: BALF eosinophils and cytokines; format: in vivo; settings: for Airway eosinophil infiltration (eosinophils per ml of BALF): dosed orally to day 31, anti-inflammatory dosing paradigm
Protocol: Male BALB/c mice were ordered from Charles River Laboratories (Raleigh, N.C.). The animals were approximately 19 to 21 grams at time of receipt. Upon arrival, the animals were randomized into groups of five males per cage and assigned to a dosing group. Animals were quarantined for 7 days under test conditions. They were observed daily for general health status and ability to adapt to the water bottles. Animals were sensitized on day 0 and 14 of study by an intraperitoneal injection with 20 μg of ovalbumin (ova) and 2.0 mg aluminum hydroxide (alum) which initiates the development of a specific T-helper (Th) cells type 2 resulting in asthmatic animals (denoted as Ova in the figures). One group of animals received an injection of saline to use as control animals (denoted as normal in the figures). […] Aerosol challenge consists of using an Aerogen Aeroneb nebulizer and controller with a particle size of 4-6 μm mass median aerodynamic diameter (MMAD) with a distribution of 400 μl per minute. This aerosol challenge is necessary to target the Th2-driven allergic inflammation in the lower airways.
The anti-inflammatory dosing paradigm (FIG. 1) was utilized to evaluate the anti-inflammatory effects of experimental compounds. […] On day 32 of the experiment, after measurement of airway hyperreactivity, BALF was collected and all animals were anesthetized, bled and euthanized.
Bronchoalveolar lavage fluid (BALF) was collected by infusing 3.0 ml of saline with 10% fetal calf serum into the lungs via the trachea and then withdrawing the fluid. The total amount of cells/ml of BALF fluid was determined via manual cell count on hemocytometer. The BALF was centrifuged, supernatant removed and analyzed for cytokine concentrations as described below, and cell pellet reconstituted in 500 μL of fluid. Cytospin slides were prepared from the cell pellet using 100 μL of fluid and spinning samples for 5 minutes at 5000 rpms in a cytospin centrifuge. Following Hema3 stain, relative percentages of individual leukocytes were determined on a 200 cell count for each sample. The final concentration of individual leukocyte cell types per ml of BALF was determined by multiplication of the relative percentage of individual leukocytes with the total amount of cells/ml of BALF fluid.
The concentrations of cytokines in the BALF samples were determined using commercially available Bio-plex kits (Bio-Rad) for the detection of mouse IL-5, IL-13, and Eotaxin. The analysis of cytokine levels was measured using the Bio-Plex 200 (Bio-Rad) system according to the manufacturer's instructions.

human eosinophils = experiment: Human eosinophil chemotaxis (eotaxin); format: cell-based; settings: 1 nM eotaxin challenge
From the text: These assays are in vitro assays of eosinophil chemotaxis that can be used to evaluate the ability of Rho Kinase inhibitor compounds of Formula I or II to inhibit the migration of eosinophils, an immunomodulatory cell involved in inflammation. Compounds with activity in this assay can be utilized to treat disease associated with an inflammatory response. Human Eosinophil Isolation: Peripheral blood from healthy human volunteers was collected and the PMNs separated via Ficoll-paque density centrifugation followed by hypotonic lysis of the red blood cells. Subsequently, the human eosinophils were isolated from the cell suspension via StemCell Technologies Human Eosinophil Enrichment kit (Cat. No 19256) according to the manufacturer's recommendations. Briefly, unwanted cells were specifically labeled with dextran-coated magnetic nanoparticles using bispecific Tetrameric Antibody Complexes (TAC) directed against cell surface antigens on human blood cells: […] The unwanted cells are then separated from the unlabelled eosinophils using the EasySep® magnetic isolation procedure. In Vitro Chemotaxis: […]

[4] = Rat oral pharmacokinetics (plasma); format: in vivo; settings: 20-30 μmol/kg, mean n = 3
Protocol: Plasma (EDTA K2 anticoagulant) was collected from male, cannulated, CD Sprague Dawley rats to determine the pharmacokinetics of formulations containing compound inhibitors of Rho kinase. Each animal was dosed orally with a 4 ml/kg solution or suspension of each test compound in 10 mM acetate buffered saline, pH 4.5 at a final concentration range of 20-30 μmol/kg. Blood was collected at 0.25, 0.5, 1, 2, 4, 6, 8, and 24 hours. Plasma samples were assayed for the concentration of the test compound using an on-line, solid phase extraction LC/MS/MS analysis system.
Samples were analyzed on a QSTAR Elite, hybrid quadrupole time-of-flight mass spectrometer (Applied Biosystems, Framingham, Mass.) coupled with a Symbiosis Pharma integrated, on-line SPE-HPLC system (Spark Holland Inc., Plainsboro, N.J.). Analyst QS 2.0 software was used for instrument control, data acquisition and processing. […] Mobile Phase A consisted of 0.1% ammonium hydroxide in water and Mobile Phase B consisted of 0.1% formic acid in acetonitrile. Pharmacokinetic analyses were performed using WinNonlin software version 5.2 (Pharsight Corporation, Mountain View, Calif.).
As determined from the plasma concentration versus time curves, the time to peak and peak exposure are represented by the values Tmax and Cmax, respectively. The AUC values (nM*hr) shown were calculated as the areas under the plasma concentration versus time curves from time zero through the time of the last observable value and represent the total exposure of the compound over the course of the study. Half-life values or the amount of time required for the plasma levels of the compound to decline to half the initial value are represented as t½.

LPS-challenged mice = experiment: LPS-induced neutrophilia and cytokine production assay; format: in vivo, mouse; settings: for IL-1β levels in BALF: intratracheal administration, LPS-challenged mice
Protocol: This assay is an in vivo assay of neutrophil accumulation and cytokine production that can be used to evaluate the activity of Rho Kinase inhibitor compounds of Formula I or II as anti-inflammatory agents in a whole animal model.
Male BALB/c mice, approximately 19 to 21 grams, were ordered from Charles River Laboratories (Raleigh, N.C.). All animals were challenged with aerosolized LPS (10 μg/ml) for 25 minutes on study day 0. LPS aerosol was generated using an Aerogen Aeroneb nebulizer and controller providing a flow of 400 μl/min and a particle size of 2-4 μm MMAD. Rolipram was administered i.p at 20 mg/kg. […] Four hours following LPS challenge, BALF was collected using a total of 3 ml of 0.9% sodium chloride containing 10% fetal calf serum. Total cell counts were determined using the Coulter Counter. For differential evaluations, BALF was centrifuged and cytospin slides prepared and stained with Hema3 stain. Manual leukocyte counts were then completed on 200 cells. The final concentration of individual leukocyte cell types per ml of BALF was determined by multiplication of the relative percentage of individual leukocytes with the total amount of cells/ml of BALF fluid. The concentration of IL-1β in the BALF samples was determined using commercially available Bio-plex kits (Bio-Rad). The analysis of cytokine levels was measured using the Bio-Plex 200 (Bio-Rad) system according to the manufacturer's instructions.

[5] = 15 μmol/kg/oral on days 27 to 31

T1 sequence (P28482 whole entry): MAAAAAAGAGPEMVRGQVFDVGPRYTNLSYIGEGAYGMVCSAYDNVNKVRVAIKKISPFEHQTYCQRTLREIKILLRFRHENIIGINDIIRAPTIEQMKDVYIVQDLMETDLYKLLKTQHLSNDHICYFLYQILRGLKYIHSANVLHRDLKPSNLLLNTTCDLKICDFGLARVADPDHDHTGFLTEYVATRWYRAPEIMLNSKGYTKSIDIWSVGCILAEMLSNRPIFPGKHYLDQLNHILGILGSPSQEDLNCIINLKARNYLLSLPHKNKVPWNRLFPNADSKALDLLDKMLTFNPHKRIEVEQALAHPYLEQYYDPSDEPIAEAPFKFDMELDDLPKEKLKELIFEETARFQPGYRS

NC(=O)Cn1ccc2cc(CN3CCC[C@@H](Nc4ccc5[nH]ncc5c4)C3)ccc21 [Compound 1.162, (R)-2-(5-((3-(1H-indazol-5-ylamino)piperidin-1-yl)methyl)-1H-indol-1-yl)acetamide]
activity at 1 µM (ERK2; 1 μM test compound, read-out: Percent inhibition ERK2): 89% | activity at 10 µM (ERK2; 10 μM test compound, read-out: Percent inhibition ERK2): 60%

OCCn1ccc2cc(CN3CC[C@@H](Nc4cccc5cnccc45)C3)ccc21 [Compound 2.066, (R)-2-(5-((3-(isoquinolin-5-ylamino)pyrrolidin-1-yl)methyl)-1H-indol-1-yl)ethanol]
IC50 [1]: 170 to 1000 nM

CS(=O)(=O)Nc1cccc(CN2CC[C@@H](Nc3cccc4cnccc34)C2)c1 [Compound 2.038, (R)-N-(3-((3-(isoquinolin-5-ylamino)pyrrolidin-1-yl)methyl)phenyl)methanesulfonamide]
murine eosinophil chemotactic response (murine eosinophils): inhibited | airway hyperreactivity to metacholine [2]: prevention of airway hyperreactivity | concentration of Eotaxin in BALF [3, 5]: reduced levels | concentration of IL-5 in BALF [3, 5]: reduced levels | concentration of IL-13 in BALF [3, 5]: reduced levels | Airway eosinophil infiltration (eosinophils per ml of BALF) [3]: reduced | human eosinophil chemotactic response (human eosinophils): inhibited

CS(=O)(=O)Nc1cccc(CN2CCC[C@H](Nc3ccc4[nH]ncc4c3)C2)c1 [Compound 1.091, (S)-N-(3-((3-(1H-indazol-5-ylamino)piperidin-1-yl)methyl)phenyl)methanesulfonamide]
AUC (0-last) [4]: BLQ | Cmax [4]: BLQ | Tmax [4]: BLQ | t½ [4]: BLQ | airway hyperreactivity ([2]; intratracheal once a day during days 27 to 30): prevention of airway hyperreactivity | eosinophils in BALF ([3]; dosed i.t. to day 30, anti-inflammatory dosing paradigm): reduction of eosinophils | IL-1β levels in BALF (LPS-challenged mice): reduction in IL-1β; also recorded: reduction of IL-1β levels | LPS-induced pulmonary neutrophilia influx (LPS-challenged mice; intratracheal dosing one hour prior to LPS challenge): significant reduction; also recorded: dose-dependent inhibition

c1cc2cc(CN3CCC[C@@H](Nc4ccc5[nH]ncc5c4)C3)ccc2o1 [Compound 1.131, (R)-N-(1-(benzofuran-5-ylmethyl)piperidin-3-yl)-1H-indazol-5-amine]
airway hyperreactivity to metacholine [2]: prevention of airway hyperreactivity | Airway eosinophil infiltration (eosinophils per ml of BALF) [3]: reduced

NC(=O)Cn1ccc2cc(CN3CC[C@@H](Nc4cccc5cnccc45)C3)ccc21 [Compound 2.059, (R)-2-(5-((3-(isoquinolin-5-ylamino)pyrrolidin-1-yl)methyl)-1H-indol-1-yl)acetamide]
Percent inhibition ERK2 (ERK2; 1 μM test compound): 56% | IC50 [1]: 170 to 1000 nM | IL-1β levels in BALF (LPS-challenged mice): reduction in IL-1β; also recorded: reduction of IL-1β levels
